Data reported in US20240398777A1, “METHOD OF TREATING SYMPTOMS OF PRADER-WILLI SYNDROME” (HARMONY BIOSCIENCES, LLC, priority 2023, published 2024).

Key:
Type in all cases: in vivo, human
[1] = test system: EDS severity in subjects with PWS; test: Phase 2 study: Caregiver Global Impression of Severity (CaGI-S) for EDS; conditions: Week 11
Experimental: (§1) A study was carried out to evaluate the efficacy and safety of pitolisant for the treatment of EDS in subjects with PWS. This was a phase 2, randomized, placebo-controlled, proof-of-concept study. Children (aged 6 to <12 years), adolescents (aged 12 to <18 years), and adults (aged 18-65 years) with a confirmed diagnosis of PWS were randomly assigned to receive low-dose pitolisant (8.9 mg in children, 13.35 mg in adolescents, and 17.8 mg in adults) or high dose pitolisant (17.8 mg in children, 26.7 mg in adolescents, and 35.6 mg in adults), or placebo (see FIG. 1). All doses are expressed in terms of pitolisant freebase.
(§2) The 11-week double-blind treatment period consisted of a 3-week titration phase and an 8-week stable-dose phase.
(§3) Secondary/exploratory endpoints included change from baseline in Caregiver Global Impression of Severity (CaGI-S) for EDS, behavioral disturbance (Aberrant Behavior Checklist-2 [ABC-2]), and hyperphagia (Hyperphagia Questionnaire for Clinical Trials [HQ-CT] in conjunction with the Food Safe Zone Questionnaire [FSZQ]). The primary time frame of interest was from baseline to Week 11.

[2] = test system: hyperphagia in subjects with PWS; test: Phase 2 study: Hyperphagia Questionnaire for Clinical Trials (HQ-CT); conditions: Week 11; children (6 to <12 years) and adults (18 to 65 years)
Experimental: as §1, §2, §3

patients with PWS = test: Phase 2 study: treatment-emergent adverse events; conditions: for Treatment-related TEAEs: possibly, probably, or definitely related to study drug
Experimental: as §1, §2

[3] = test system: behavioral problems in subjects with PWS; test: Phase 2 study: Aberrant Behavior Checklist-2 (ABC-2)
Experimental: as §1, §2, §3
The ABC-2 is a widely used and validated questionnaire that can assess changes in behavioral problems, and is particularly suitable for assessing behavioral changes in subjects with intellectual and developmental disabilities. The ABC-2 questions are subdivided into five domains (irritability, social withdrawal, hyperactivity/noncompliance, inappropriate speech, and stereotypic behavior). Generally, a reduction of 2 or more points in a domain of the ABC-2 is considered clinically meaningful. ABC-2 was used in this trial to determine if pitolisant improved or reduced behavioral problems experienced by subjects living with PWS.

[4] = test system: excessive daytime sleepiness (EDS) in subjects with PWS; test: Phase 2 randomized placebo-controlled study: ESS-CHAD (parent/caregiver version)
Experimental: as §1, §2
The primary efficacy endpoint was the change from baseline to Week 11 in total score for the parent/caregiver version of the Epworth Sleepiness Scale for Children and Adolescents (ESS-CHAD), which is a validated measurement for sleep propensity. (See Janssen K C, et al. Sleep Med. 2017; 33:30-35; see also Patel V P, et al. J. Clin. Sleep Med. 2022; 18 (2): 485-496). A separate analysis was treatment response defined as ESS-CHAD score reduction of ≥3 points from baseline or Week 11 score of ≤10.

[5] = pitolisant-treated patients (doses pooled)
[6] = adolescents (12 to <18 years), higher-dose, n = 6
[7] = adolescents (12 to <18 years), lower-dose, n = 4
[8] = adults (18 to 65 years), higher-dose, n = 5
[9] = adults (18 to 65 years), lower-dose, n = 3
[10] = all patient groups, high dose pitolisant, n = 22
[11] = all patient groups, low dose pitolisant, n = 18

Clc1ccc(CCCOCCCN2CCCCC2)cc1 [pitolisant]
reduction in CaGI-S score versus placebo ([1]; children (6 to <12 years) and adults): greater for pitolisant compared with placebo
CaGI-S mean (SD) change ([1]; higher-dose pitolisant group): −1.1 (1.1)
CaGI-S mean (SD) change ([1]; lower-dose pitolisant group): −1.0 (1.2)
reduction in HQ-CT score versus placebo [2]: greater for pitolisant compared with placebo
Anxiety (patients with PWS; high-dose pitolisant, n = 22): 1 (4.5) n (%)
Any TEAE (patients with PWS; high-dose pitolisant, n = 22): 11 (50.0) n (%)
Irritability (patients with PWS; high-dose pitolisant, n = 22): 2 (9.1) n (%)
Most common TEAEs (patients with PWS; high-dose pitolisant, n = 22): 1 (4.5) n (%)
Serious TEAEs (patients with PWS; high-dose pitolisant, n = 22): 0 n (%)
Severe TEAEs (patients with PWS; high-dose pitolisant, n = 22): 0 n (%)
Treatment-related TEAEs (patients with PWS; high-dose pitolisant, n = 22): 4 (18.2) n (%)
Anxiety (patients with PWS; low-dose pitolisant, n = 20): 4 (20.0) n (%)
Any TEAE (patients with PWS; low-dose pitolisant, n = 20): 13 (65.0) n (%)
Irritability (patients with PWS; low-dose pitolisant, n = 20): 3 (15.0) n (%)
Most common TEAEs (patients with PWS; low-dose pitolisant, n = 20): 4 (20.0) n (%)
Serious TEAEs (patients with PWS; low-dose pitolisant, n = 20): 0 n (%)
Severe TEAEs (patients with PWS; low-dose pitolisant, n = 20): 0 n (%)
Treatment-related TEAEs (patients with PWS; low-dose pitolisant, n = 20): 7 (35.0) n (%)
safety and tolerability versus known safety profile (patients with PWS; patients with PWS): no new safety signals were observed
adverse event anxiety, incidence (patients with PWS; [5]): 13.0%
adverse event irritability, incidence (patients with PWS; [5]): 17.4%
mean reduction on all ABC-2 domains versus placebo ([3]; Week 11, children (6 to <12 years), higher-dose pitolisant): greater for higher-dose pitolisant compared with placebo
ABC-2 Hyperactivity/noncompliance mean change from baseline to Week 11 [3, 6]: −3.8
ABC-2 Inappropriate speech mean change from baseline to Week 11 [3, 6]: −1.7
ABC-2 Irritability mean change from baseline to Week 11 [3, 6]: −5.0
ABC-2 Social withdrawal mean change from baseline to Week 11 [3, 6]: −3.7
ABC-2 Stereotypic behavior mean change from baseline to Week 11 [3, 6]: −0.5
ABC-2 Hyperactivity/noncompliance mean change from baseline to Week 11 [3, 7]: 0.0
ABC-2 Inappropriate speech mean change from baseline to Week 11 [3, 7]: −0.8
ABC-2 Irritability mean change from baseline to Week 11 [3, 7]: −4.8
ABC-2 Social withdrawal mean change from baseline to Week 11 [3, 7]: −3.3
ABC-2 Stereotypic behavior mean change from baseline to Week 11 [3, 7]: 0.3
ABC-2 Hyperactivity/noncompliance mean change from baseline to Week 11 [3, 8]: −5.4
ABC-2 Inappropriate speech mean change from baseline to Week 11 [3, 8]: −2.2
ABC-2 Irritability mean change from baseline to Week 11 [3, 8]: −2.8
ABC-2 Social withdrawal mean change from baseline to Week 11 [3, 8]: −2.4
ABC-2 Stereotypic behavior mean change from baseline to Week 11 [3, 8]: −2.6
ABC-2 Hyperactivity/noncompliance mean change from baseline to Week 11 [3, 9]: 1.0
ABC-2 Inappropriate speech mean change from baseline to Week 11 [3, 9]: 0.7
ABC-2 Irritability mean change from baseline to Week 11 [3, 9]: −3.0
ABC-2 Social withdrawal mean change from baseline to Week 11 [3, 9]: −1.0
ABC-2 Stereotypic behavior mean change from baseline to Week 11 [3, 9]: −0.3
ABC-2 Hyperactivity/noncompliance mean change from baseline to Week 11 [3, 10]: −4.6
ABC-2 Inappropriate speech mean change from baseline to Week 11 [3, 10]: −2.0
ABC-2 Irritability mean change from baseline to Week 11 [3, 10]: −4.8
ABC-2 Social withdrawal mean change from baseline to Week 11 [3, 10]: −4.0
ABC-2 Stereotypic behavior mean change from baseline to Week 11 [3, 10]: −1.2
ABC-2 Hyperactivity/noncompliance mean change from baseline to Week 11 [3, 11]: −0.4
ABC-2 Inappropriate speech mean change from baseline to Week 11 [3, 11]: −0.3
ABC-2 Irritability mean change from baseline to Week 11 [3, 11]: −3.4
ABC-2 Social withdrawal mean change from baseline to Week 11 [3, 11]: −1.9
ABC-2 Stereotypic behavior mean change from baseline to Week 11 [3, 11]: −0.1
reductions in three ABC-2 domains including irritability and hyperactivity/noncompliance ([3]; high dose group): more than 4 points
ESS-CHAD (Parent/Caregiver Version) mean change from baseline at Week 11 ([4]; 6 to <12 years, high-dose pitolisant (17.8 mg), n = 11): −5.5 points
ESS-CHAD (Parent/Caregiver Version) mean change from baseline at Week 11 ([4]; 6 to <12 years, low-dose pitolisant (8.9 mg), n = 12): −3.7 points
ESS-CHAD (Parent/Caregiver Version) mean change from baseline at Week 11 ([4]; 12 to <18 years, high-dose pitolisant (26.7 mg), n = 6): −4.2 points
ESS-CHAD (Parent/Caregiver Version) mean change from baseline at Week 11 ([4]; 12 to <18 years, low-dose pitolisant (13.35 mg), n = 4): −4.5 points
ESS-CHAD (Parent/Caregiver Version) mean change from baseline at Week 11 ([4]; 18 to 65 years, high-dose pitolisant (35.6 mg), n = 5): −4.4 points
ESS-CHAD (Parent/Caregiver Version) mean change from baseline at Week 11 ([4]; 18 to 65 years, low-dose pitolisant (17.8 mg), n = 3): −5.0 points
mean improvement from baseline in ESS-CHAD score versus placebo ([4]; overall patient population, end of treatment, both dose groups): greater for both pitolisant dose groups compared with the placebo group
ESS-CHAD response rate (score reduction of ≥3 points from baseline or score of ≤10 at Week 11) versus placebo ([4]; study completers, Week 11, driven primarily by high-dose group): higher for pitolisant versus placebo
